# Test results from ChEMBL document CHEMBL1201862, “PubChem BioAssay data set” (2004).
# Activity calls are given as the source filed them.
# Experiments:
# cells [1] = assay: cells
# [2] = target: T1, Ubiquitin-conjugating enzyme E2 N (Homo sapiens, UniProt P61088); format: functional;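 also: Dose-response confirmation in a TR-FRET assay detecting UBC13-driven polyubiquitin chain formation, inhibition measured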
# T1 sequence (P61088 whole entry): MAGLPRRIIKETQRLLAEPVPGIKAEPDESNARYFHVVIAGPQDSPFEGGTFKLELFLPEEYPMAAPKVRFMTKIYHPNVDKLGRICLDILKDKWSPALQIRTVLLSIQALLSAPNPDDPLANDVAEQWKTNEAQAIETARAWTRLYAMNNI
# [3] = target: T2, Microphthalmia-associated transcription factor (Homo sapiens, UniProt O75030); assay: reducers of TRPM1 reporter luminescence, concentration series – cell-based, SK-MEL-5, cherry-picked, set 3, MITF inhibitor project, dose response (AID 493073); format: functional;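 also: SK-MEL-5 melanoma cells with luciferase driven by the MITF target TRPM1 promoter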
# T2 sequence (O75030 whole entry): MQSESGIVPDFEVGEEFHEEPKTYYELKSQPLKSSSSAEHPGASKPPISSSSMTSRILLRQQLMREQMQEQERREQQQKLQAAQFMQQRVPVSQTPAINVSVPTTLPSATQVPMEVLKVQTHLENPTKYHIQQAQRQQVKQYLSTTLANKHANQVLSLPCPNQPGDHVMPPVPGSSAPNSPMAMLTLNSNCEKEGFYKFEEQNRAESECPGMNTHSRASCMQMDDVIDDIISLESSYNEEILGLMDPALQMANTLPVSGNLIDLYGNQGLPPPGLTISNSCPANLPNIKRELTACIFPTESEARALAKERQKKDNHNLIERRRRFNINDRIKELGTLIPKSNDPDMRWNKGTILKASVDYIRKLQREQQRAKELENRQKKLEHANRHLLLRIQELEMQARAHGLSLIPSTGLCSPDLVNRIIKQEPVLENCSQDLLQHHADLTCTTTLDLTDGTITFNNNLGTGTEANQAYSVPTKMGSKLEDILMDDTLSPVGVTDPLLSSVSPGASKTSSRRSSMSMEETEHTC
# cells [4] = format: functional
# [5] = target: T3, DNA repair protein RAD52 homolog (Homo sapiens, UniProt P43351); format: functional, biochemical
# T3 sequence (P43351 whole entry): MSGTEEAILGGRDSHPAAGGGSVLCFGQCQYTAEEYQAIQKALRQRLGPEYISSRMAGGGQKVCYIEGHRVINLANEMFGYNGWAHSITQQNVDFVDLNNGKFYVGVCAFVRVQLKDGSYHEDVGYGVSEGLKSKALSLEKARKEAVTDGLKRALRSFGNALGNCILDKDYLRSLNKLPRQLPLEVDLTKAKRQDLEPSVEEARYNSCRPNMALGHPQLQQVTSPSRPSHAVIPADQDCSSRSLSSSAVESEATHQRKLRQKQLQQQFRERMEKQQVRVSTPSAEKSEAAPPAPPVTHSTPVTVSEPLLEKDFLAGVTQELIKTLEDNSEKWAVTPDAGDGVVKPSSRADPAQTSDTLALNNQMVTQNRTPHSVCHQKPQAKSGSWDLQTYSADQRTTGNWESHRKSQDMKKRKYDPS
# [6] = viability of PTEN-deleted HCT116 cells – cell-based, HCT116 PTEN knockout, dose response (AID 1047); format: functional;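 also: HCT116 colon tumor cells with PTEN knocked out; cells exposed to compound for 60 hours before readout; potency for loss of cell viability measured by luminescence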
# Estrogen receptor beta = Estrogen receptor beta (Homo sapiens, UniProt Q92731); assay: blockers of SRC-3 recruitment to ERβ – biochemical, ELISA, streptavidin-HRP readout, orthogonal assay, confirmation (AID 1060)
# [7] = viability of HCT116 lacking mutant beta-catenin – cell-based, human colon tumor, dose response (AID 1045); format: functional;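 also: HCT116 colon tumor cells with beta catenin knocked out; cells exposed to compound for 60 hours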
# Cytochrome P450 2C9 = Cytochrome P450 2C9 (Homo sapiens, UniProt P11712)
# [8] = viability of uninfected HEp-2 cells – cell-based, HTS, cytotoxicity control for RSV inhibitor project, dose response (AID 2410); format: functional; details: human respiratory syncytial virus
# Cytochrome P450 2C19 = Cytochrome P450 2C19 (Homo sapiens, UniProt P33261); assay: Cytochrome panel assay with activity outcomes. Panel member name: p450-cyp2c19 Compounds with AC50 equal or less than 10 uM are considered active; format: functional; details: read-out: AC50
# [9] = intracellular Trypanosoma cruzi inhibitors in host cells – cell-based, plate reader, cherry-pick samples, set 3, dose response (AID 651818); format: functional;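 also: compounds incubated with infected cells for about four days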
# Estrogen receptor beta, sequence (Q92731 whole entry): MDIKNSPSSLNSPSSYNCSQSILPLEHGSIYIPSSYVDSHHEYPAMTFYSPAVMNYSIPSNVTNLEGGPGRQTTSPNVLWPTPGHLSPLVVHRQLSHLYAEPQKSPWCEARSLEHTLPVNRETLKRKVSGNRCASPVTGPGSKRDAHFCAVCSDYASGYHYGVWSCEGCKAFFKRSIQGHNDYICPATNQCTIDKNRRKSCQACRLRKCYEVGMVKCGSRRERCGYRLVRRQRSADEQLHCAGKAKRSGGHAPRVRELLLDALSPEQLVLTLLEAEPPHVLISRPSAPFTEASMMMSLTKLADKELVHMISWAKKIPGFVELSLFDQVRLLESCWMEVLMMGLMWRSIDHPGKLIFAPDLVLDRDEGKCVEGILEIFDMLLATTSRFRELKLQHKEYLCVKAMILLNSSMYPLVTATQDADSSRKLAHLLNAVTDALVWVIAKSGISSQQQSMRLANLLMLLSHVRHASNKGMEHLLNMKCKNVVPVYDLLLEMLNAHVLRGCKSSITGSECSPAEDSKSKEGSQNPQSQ
# Cytochrome P450 2C9, sequence (P11712 whole entry): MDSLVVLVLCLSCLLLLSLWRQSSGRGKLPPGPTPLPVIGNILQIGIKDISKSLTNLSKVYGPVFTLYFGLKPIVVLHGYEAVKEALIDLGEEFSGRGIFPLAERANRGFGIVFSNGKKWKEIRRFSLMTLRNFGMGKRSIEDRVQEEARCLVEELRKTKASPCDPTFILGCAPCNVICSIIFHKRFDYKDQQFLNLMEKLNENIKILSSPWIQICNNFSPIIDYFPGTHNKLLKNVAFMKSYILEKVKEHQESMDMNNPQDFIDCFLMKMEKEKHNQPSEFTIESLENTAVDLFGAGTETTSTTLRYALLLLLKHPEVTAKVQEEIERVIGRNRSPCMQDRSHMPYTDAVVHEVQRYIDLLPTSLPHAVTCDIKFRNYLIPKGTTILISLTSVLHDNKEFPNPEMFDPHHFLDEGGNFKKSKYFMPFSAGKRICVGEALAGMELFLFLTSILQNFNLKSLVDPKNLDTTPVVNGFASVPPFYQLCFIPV
# Cytochrome P450 2C19, sequence (P33261 whole entry): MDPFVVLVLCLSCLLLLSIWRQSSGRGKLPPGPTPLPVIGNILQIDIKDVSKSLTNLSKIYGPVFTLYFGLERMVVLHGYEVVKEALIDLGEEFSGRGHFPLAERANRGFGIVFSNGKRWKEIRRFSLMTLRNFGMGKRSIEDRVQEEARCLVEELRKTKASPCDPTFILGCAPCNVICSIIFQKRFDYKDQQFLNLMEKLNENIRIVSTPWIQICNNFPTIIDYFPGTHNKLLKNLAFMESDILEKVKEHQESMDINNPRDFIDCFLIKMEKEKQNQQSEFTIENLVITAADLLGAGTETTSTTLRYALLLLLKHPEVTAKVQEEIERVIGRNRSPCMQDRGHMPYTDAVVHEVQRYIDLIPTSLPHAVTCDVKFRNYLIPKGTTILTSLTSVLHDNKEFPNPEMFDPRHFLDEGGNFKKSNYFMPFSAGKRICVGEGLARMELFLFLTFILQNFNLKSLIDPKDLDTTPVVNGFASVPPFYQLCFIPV
structure (smiles),measurement,setting,value
CCCC(=O)Nc1ccc(-c2nc3cc(C)c(C)cc3o2)cc1,IC50,cells [1],48.2 µM (active)
COc1ccc(C(=O)N2CC(c3ccc(Cl)cc3)CC2=O)cc1 (stereo not drawn),IC50,cells [1],31.5 µM (active)
CC1CN(C(=O)CCC(=O)NCCCN2CCC(Cc3ccccc3)CC2)c2cc(Cl)ccc2O1 (stereo not drawn),IC50,[2],> 20 µM (inactive)
same,AC50,[3],16.2 µM (active)
CSc1ccccc1NC(=O)c1cc(C(C)C)on1,IC50,cells [4],27.9 µM (active)
NCCCC[C@@H]1NC(=O)c2cc([N+](=O)[O-])cc(F)c2NCCCC[C@@H](C(N)=O)NC(=O)[C@H](CCC(N)=O)NC1=O,IC50,[2],> 20 µM (inactive)
same,AC50,[5],8.88 µM (active)
OC(COc1ccc(C2C=CCC2)cc1)CN1CCCCC1 (stereo not drawn),EC50,[6],40.2 µM (active)
same,IC50,Estrogen receptor beta,13.1 µM (not active)
same,EC50,[7],32 µM (active)
COc1cc(C(=O)NCCC(C)C)c([N+](=O)[O-])cc1OC,AC50,Cytochrome P450 2C9,inconclusive
COCCCn1c(Cc2csc(Nc3cccc(Cl)c3)n2)nnc1SCC(=O)OC,IC50,Estrogen receptor beta,17 µM (not active)
CC1CCCC(C)N1CC(=O)Nc1sc2c(c1C#N)CCC2 (stereo not drawn),IC50,Estrogen receptor beta,22.5 µM (not active)
N#Cc1nc(-c2cccc3ccccc23)oc1N,CC50,[8],> 50 µM (active)
same,IC50,cells [1],23.2 µM (active)
c1ccc(-c2nnc(SCc3nnc(-c4cccs4)o3)o2)cc1,IC50,cells [4],30.4 µM (active)
C1CCCCCC(NCCN2CCNCC2)CCCCC1,AC50,[5],23.1 µM (active)
CC(CC(=O)c1ccc(F)cc1)N1CCN(c2ccccc2)CC1 (stereo not drawn),AC50,[5],34.3 µM (active)
O=C(c1ccccc1)N(Cc1ccco1)C1CCS(=O)(=O)C1 (stereo not drawn),AC50,Cytochrome P450 2C19,31.6 µM (inconclusive)
same,AC50,Cytochrome P450 2C9,inconclusive
O=C(Nc1nnc(-c2ccc(Br)cc2)o1)C1=COCCO1,IC50,cells [4],5.97 µM (active)
CSCCOC(=O)COc1ccc(/C=N/NC(=O)c2c(Cl)cnn2C)cc1,IC50,cells [4],4.7 µM (active)
C[C@H]1CN([C@@H](C)CO)C(=O)c2cccc(NC(=O)c3nc4ccccc4s3)c2O[C@H]1CN(C)C(=O)Nc1ccc(C(F)(F)F)cc1,AC50,[9],3.86 µM (active)
